SMILES strings stand for the structures.

This experiment has as its target Growth hormone secretagogue receptor type 1 (Rattus norvegicus) (UniProt O08725). Description: Ability to release growth hormone in a rat pituitary cell assay.

Sequence of Growth hormone secretagogue receptor type 1 (Rattus norvegicus) (O08725 whole entry, looked up): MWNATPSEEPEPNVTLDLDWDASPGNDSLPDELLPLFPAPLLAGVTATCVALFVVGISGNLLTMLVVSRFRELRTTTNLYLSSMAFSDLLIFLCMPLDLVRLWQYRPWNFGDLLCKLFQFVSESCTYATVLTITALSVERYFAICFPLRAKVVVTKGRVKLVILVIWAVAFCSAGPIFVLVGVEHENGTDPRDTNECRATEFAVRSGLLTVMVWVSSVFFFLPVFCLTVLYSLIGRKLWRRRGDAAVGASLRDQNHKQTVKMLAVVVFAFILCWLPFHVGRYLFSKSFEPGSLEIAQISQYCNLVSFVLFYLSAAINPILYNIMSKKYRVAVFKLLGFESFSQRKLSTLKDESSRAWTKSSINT

As a reminder, the EC50 is the concentration needed to bring the measured effect to its halfway point. Low readings indicate higher potency in that assay, high ones lower potency in that assay. With `CC(C)(N)C(=O)N[C@H](Cc1c[nH]c2ccccc12)C(=O)N1CCC2(CCc3ccccc32)CC1` [L-162752], the EC50 was 14 nM.

With `CCOC(=O)[C@@H]1CC2(CCN(C(=O)[C@@H](CCCc3ccccc3)NC(=O)C(C)(C)N)CC2)c2ccccc21`, a half-maximal response (EC50) required 2 nM.

For the compound `CCOC(=O)C[C@@H]1CC2(CCN(C(=O)[C@@H](CCCc3ccccc3)NC(=O)C(C)(C)N)CC2)c2ccccc21`, the EC50 was 0.8 nM.

With `CC(C)(N)C(=O)N[C@H](COCc1ccccc1)C(=O)N1CCC2(CC1)C[C@H](C(=O)O)c1ccccc12`, the midpoint of the response, the EC50, lay at 4.4 nM.

On to `CC(C)(N)C(=O)N[C@H](Cc1c[nH]c2ccccc12)C(=O)N1CCC2(CC1)C[C@@H](CC(=O)O)c1ccccc12`, for which the EC50 was determined as 5.8 nM.

`CCOC(=O)C[C@H]1CC2(CCN(C(=O)[C@@H](Cc3c[nH]c4ccccc34)NC(=O)C(C)(C)N)CC2)c2ccccc21` came in with an EC50 of 28 nM.

Take `CCOC(=O)C[C@@H]1CC2(CCN(C(=O)[C@@H](Cc3c[nH]c4ccccc34)NC(=O)C(C)(C)N)CC2)c2ccccc21`: the midpoint of the response, the EC50, lay at 7 nM.

`CC(C)(N)C(=O)N[C@H](CCCc1ccccc1)C(=O)N1CCC2(CC1)C[C@@H](CC(=O)O)c1ccccc12`: the EC50 amounted to 1.9 nM.

Take `CC(C)(N)C(=O)N[C@H](CCCc1ccccc1)C(=O)N1CCC2(CC1)C[C@H](CC(=O)O)c1ccccc12`: the EC50 is 2.3 nM.

Turning to `CC(C)(N)C(=O)N[C@H](CCCc1ccccc1)C(=O)N1CCC2(CC1)C[C@@H](C(=O)O)c1ccccc12`, it took 2.5 nM to reach a half-maximal effect (EC50).

With `CCOC(=O)[C@@H]1CC2(CCN(C(=O)[C@@H](COCc3ccccc3)NC(=O)C(C)(C)N)CC2)c2ccccc21`, the EC50 was 6.6 nM.

The compound `C[C@@H](O)CNC(C)(C)CC(=O)N[C@@H]1CCc2ccccc2N(Cc2ccc(-c3ccccc3-c3nnn[nH]3)cc2)C1=O` [L-692585] had an EC50 of 3 nM.

On to `CCOC(=O)[C@@H]1CC2(CCN(C(=O)[C@@H](Cc3c[nH]c4ccccc34)NC(=O)C(C)(C)N)CC2)c2ccccc21`, for which the EC50 was 8.3 nM.

The compound `CCOC(=O)[C@H]1CC2(CCN(C(=O)[C@@H](Cc3c[nH]c4ccccc34)NC(=O)C(C)(C)N)CC2)c2ccccc21` showed an EC50 of 6 nM.

For the compound `CCOC(=O)CCC1CC2(CCN(C(=O)[C@@H](CCCc3ccccc3)NC(=O)C(C)(C)N)CC2)c2ccccc21` (stereo partly drawn), a half-maximal response (EC50) required 1.3 nM.

`CC(C)(N)C(=O)N[C@@H](CCCc1ccccc1)C(=O)N1CCC2(CCc3ccccc32)CC1` came in with an EC50 of 10 nM.

Take `CCOC(=O)[C@H]1CC2(CCN(C(=O)[C@@H](COCc3ccccc3)NC(=O)C(C)(C)N)CC2)c2ccccc21`: the EC50 was 2.9 nM.

`CCOC(=O)C[C@H]1CC2(CCN(C(=O)[C@@H](CCCc3ccccc3)NC(=O)C(C)(C)N)CC2)c2ccccc21` had an EC50 of 1 nM.

`CC(C)(N)CC(=O)N[C@@H]1CCc2ccccc2N(Cc2ccc(-c3ccccc3-c3nnn[nH]3)cc2)C1=O` [3-Amino-3-methyl-N-{2-oxo-1-[2'-(1H-tetrazol-5-yl)-biphenyl-4-ylmethyl]-2,3,4,5-tetrahydro-1H-benzo[b]azepin-3-yl}-butyramide] gave an EC50 of 60 nM.

On to `CCOC(=O)[C@H]1CC2(CCN(C(=O)[C@@H](CCCc3ccccc3)NC(=O)C(C)(C)N)CC2)c2ccccc21`, for which the EC50 came to 1 nM.

In the case of `CC(C)(N)C(=O)N[C@H](CCCc1ccccc1)C(=O)N1CCC2(CC1)CC(CCC(=O)O)c1ccccc12` (stereo partly drawn), the EC50 stood at 2.5 nM.

Regarding `CC(C)(N)C(=O)N[C@H](COCc1ccccc1)C(=O)N1CCC2(CCc3ccccc32)CC1`, the EC50 was determined as 17 nM.

As for `CC(C)(N)C(=O)N[C@H](CCCc1ccccc1)C(=O)N1CCC2(CC1)C[C@H](C(=O)O)c1ccccc12`, the EC50 was 2.1 nM.

These data come from BindingDB's records for doi:10.1016/S0960-894X(97)00421-6 (1997).
